# Key:
# [1] = molecular target: T1, Histone-lysine N-methyltransferase EHMT2 (Homo sapiens, UniProt Q96KQ7); assay: Inhibition of G9a (unknown origin) assessed as reduction in substrate methylation using histone H3 and SAM as substrate measured after 15 to 60 mins by microfluidic capillary electrophoresis analysis
# T1 sequence (Q96KQ7 whole entry): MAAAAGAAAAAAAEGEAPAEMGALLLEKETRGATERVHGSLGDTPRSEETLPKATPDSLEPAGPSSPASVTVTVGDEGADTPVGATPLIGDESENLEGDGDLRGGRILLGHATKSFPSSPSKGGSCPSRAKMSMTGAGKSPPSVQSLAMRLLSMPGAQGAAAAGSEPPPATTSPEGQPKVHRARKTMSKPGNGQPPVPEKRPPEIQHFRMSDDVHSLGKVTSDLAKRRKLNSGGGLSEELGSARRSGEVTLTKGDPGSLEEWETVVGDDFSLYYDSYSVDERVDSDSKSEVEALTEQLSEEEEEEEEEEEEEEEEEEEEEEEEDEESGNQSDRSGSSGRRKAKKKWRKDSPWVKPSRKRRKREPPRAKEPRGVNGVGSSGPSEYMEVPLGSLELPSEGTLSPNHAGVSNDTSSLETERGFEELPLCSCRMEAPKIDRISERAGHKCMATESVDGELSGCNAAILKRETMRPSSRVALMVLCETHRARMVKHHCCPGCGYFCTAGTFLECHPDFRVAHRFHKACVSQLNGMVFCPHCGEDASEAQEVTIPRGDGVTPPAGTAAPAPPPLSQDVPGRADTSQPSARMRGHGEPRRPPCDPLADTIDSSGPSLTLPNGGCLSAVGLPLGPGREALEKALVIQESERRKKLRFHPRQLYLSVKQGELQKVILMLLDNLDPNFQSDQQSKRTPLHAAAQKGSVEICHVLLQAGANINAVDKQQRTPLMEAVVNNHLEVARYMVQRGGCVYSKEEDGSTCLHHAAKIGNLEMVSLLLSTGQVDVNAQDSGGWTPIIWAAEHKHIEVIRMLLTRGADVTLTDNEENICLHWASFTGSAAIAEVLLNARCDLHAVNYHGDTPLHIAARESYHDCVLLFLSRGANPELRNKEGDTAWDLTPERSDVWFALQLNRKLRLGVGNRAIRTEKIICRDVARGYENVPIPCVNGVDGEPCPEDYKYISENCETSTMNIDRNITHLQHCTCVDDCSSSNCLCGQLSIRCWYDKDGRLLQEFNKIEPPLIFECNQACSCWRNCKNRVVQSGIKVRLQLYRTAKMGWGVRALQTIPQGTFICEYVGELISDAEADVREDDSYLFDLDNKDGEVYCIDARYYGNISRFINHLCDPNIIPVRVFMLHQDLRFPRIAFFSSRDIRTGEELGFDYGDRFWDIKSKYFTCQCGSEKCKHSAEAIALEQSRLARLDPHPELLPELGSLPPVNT
# LSD1/CoREST complex [2] = molecular target: T2, LSD1/CoREST complex (Homo sapiens, UniProt O60341); assay: Binding affinity to human LSD1/CoREST assessed as dissociation constant by competitive fluorescence polarization assay; type: protein-complex assay
# LSD1/CoREST complex [3] = molecular target: T2, LSD1/CoREST complex; assay: Inhibition of human LSD1/CoREST using histone H3 peptide as substrate by fluorescence polarization assay; type: protein-complex assay
# [4] = molecular target: Histone-lysine N-methyltransferase EZH2 (Homo sapiens) (UniProt Q15910); assay: Inhibition of EZH2 (unknown origin) using [3H]SAM and chicken core histone as substrates at 100 uM incubated for 1 hr relative to control
# Histone-lysine N-methyltransferase EZH2 (Homo sapiens), sequence (Q15910 whole entry, looked up): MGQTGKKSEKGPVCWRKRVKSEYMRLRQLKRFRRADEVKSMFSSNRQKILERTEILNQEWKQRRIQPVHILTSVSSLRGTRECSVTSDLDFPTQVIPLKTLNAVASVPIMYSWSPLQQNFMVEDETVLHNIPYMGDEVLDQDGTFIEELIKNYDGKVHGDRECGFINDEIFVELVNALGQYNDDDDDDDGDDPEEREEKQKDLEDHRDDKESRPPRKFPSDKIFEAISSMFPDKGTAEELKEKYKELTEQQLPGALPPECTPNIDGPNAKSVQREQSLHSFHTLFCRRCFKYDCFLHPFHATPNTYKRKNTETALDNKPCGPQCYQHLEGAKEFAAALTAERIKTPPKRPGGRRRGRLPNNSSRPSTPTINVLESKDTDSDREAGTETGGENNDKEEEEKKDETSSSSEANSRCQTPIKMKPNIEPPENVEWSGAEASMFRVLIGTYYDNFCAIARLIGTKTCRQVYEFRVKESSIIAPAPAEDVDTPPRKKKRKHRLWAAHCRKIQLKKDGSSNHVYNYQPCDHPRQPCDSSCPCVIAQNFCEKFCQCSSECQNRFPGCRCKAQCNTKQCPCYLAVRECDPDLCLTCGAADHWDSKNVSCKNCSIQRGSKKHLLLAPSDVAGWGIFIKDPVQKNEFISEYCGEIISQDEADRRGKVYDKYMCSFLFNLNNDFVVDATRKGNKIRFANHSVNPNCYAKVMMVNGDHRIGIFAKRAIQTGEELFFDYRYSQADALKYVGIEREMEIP
# [5] = molecular target: Histone-lysine N-methyltransferase, H3 lysine-79 specific (Homo sapiens) (UniProt Q8TEK3); assay: Inhibition of […] (unknown origin) using [3H]SAM and HeLa oligo nucleosomes as substrates at 100 uM incubated for 1 hr relative to control
# Histone-lysine N-methyltransferase, H3 lysine-79 specific (Homo sapiens), sequence (Q8TEK3 whole entry, looked up): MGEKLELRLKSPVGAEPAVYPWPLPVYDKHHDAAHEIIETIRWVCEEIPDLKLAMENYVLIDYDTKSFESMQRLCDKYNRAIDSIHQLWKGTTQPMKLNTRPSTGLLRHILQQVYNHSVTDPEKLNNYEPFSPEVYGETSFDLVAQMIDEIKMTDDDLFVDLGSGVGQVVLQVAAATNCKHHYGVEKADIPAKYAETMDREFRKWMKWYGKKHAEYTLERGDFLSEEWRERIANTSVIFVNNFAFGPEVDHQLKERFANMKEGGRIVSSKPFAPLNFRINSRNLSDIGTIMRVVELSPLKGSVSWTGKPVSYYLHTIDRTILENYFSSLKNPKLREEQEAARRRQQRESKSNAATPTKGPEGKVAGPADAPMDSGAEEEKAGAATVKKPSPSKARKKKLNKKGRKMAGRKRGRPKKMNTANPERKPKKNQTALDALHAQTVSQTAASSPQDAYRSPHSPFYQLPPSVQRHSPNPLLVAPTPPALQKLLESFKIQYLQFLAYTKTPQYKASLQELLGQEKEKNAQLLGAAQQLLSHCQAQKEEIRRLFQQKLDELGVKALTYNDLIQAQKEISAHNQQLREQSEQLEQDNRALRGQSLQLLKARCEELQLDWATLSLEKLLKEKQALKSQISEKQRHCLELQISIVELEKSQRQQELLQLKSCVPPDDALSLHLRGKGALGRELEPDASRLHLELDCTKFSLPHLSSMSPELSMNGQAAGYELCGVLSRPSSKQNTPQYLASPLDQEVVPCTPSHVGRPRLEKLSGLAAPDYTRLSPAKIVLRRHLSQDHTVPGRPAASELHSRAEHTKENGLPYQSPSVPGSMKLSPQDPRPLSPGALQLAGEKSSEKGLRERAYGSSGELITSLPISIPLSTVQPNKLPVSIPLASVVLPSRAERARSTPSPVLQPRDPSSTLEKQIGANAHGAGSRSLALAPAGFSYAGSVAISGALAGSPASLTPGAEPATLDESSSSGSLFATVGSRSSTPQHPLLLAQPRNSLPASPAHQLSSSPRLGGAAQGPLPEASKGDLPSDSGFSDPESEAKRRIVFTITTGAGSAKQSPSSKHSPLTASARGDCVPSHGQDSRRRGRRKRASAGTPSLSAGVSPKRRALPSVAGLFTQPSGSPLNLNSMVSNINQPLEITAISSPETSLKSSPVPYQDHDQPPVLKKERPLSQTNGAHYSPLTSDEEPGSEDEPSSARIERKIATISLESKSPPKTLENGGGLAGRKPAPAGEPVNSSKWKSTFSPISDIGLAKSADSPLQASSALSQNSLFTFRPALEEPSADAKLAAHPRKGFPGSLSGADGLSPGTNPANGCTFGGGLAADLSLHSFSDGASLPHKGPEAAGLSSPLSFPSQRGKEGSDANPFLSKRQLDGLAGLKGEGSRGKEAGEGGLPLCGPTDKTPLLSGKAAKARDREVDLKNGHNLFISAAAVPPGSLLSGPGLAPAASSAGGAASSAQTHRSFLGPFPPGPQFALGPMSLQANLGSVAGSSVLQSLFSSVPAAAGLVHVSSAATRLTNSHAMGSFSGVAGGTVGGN
Ki [1],Kd (LSD1/CoREST complex [2]),Ki (LSD1/CoREST complex [3]),inhibition [4],inhibition [5],Structure (SMILES)
> 100000 nM,2850 nM,,,,COc1cc2nc(NCCCN(C)C)nc(OC3CCN(Cc4ccccc4)CC3)c2cc1OC
4830 nM,1560 nM,,,,COc1cc2nc(NCCCN(C)C)nc(NC3CCNCC3)c2cc1OC
48300 nM,228 nM,,,,COc1cc2nc(NCCCN(C)C)nc(NCCCNc3ccccc3)c2cc1OC
3940 nM,86 nM,175 nM,,,CCN(CC)CCCNc1nc(NC2CCN(Cc3ccccc3)CC2)c2cc(OC)c(OC)cc2n1
20200 nM,127 nM,,,,COc1cc2c(NCCNc3cccc4ccccc34)nc(NCCCN(C)C)nc2cc1OCc1ccccc1
3130 nM,147 nM,,,,COc1cc2nc(NCCCN(C)C)nc(NC3CCN(CCc4ccccc4)CC3)c2cc1OC
3100 nM,84 nM,212 nM,,,COc1cc2nc(NCCCN(C)C)nc(NC3CCN(Cc4cccc5ccccc45)CC3)c2cc1OC
6330 nM,82 nM,,,,COc1cc2nc(NC3CCN(C)CC3)nc(NC3CCN(Cc4ccccc4)CC3)c2cc1OC
22800 nM,115 nM,,,,COc1cc2nc(NCCCN(C)C)nc(NCC3CCN(Cc4ccccc4)CC3)c2cc1OC
4170 nM,1490 nM,,,,COc1cc2nc(NCCCN(C)C)nc(NC3CCN(C)CC3)c2cc1OC
41500 nM,230 nM,,,,COc1cc2nc(NCCCN(C)C)nc(NCCNc3cccc4ccccc34)c2cc1OC
4010 nM,82 nM,183 nM,,,COc1cc2nc(NCCCN3CCCC3)nc(NC3CCN(Cc4ccccc4)CC3)c2cc1OC
2790 nM,127 nM,,,,COc1cc2nc(NCCCCCN(C)C)nc(NC3CCN(Cc4ccccc4)CC3)c2cc1OC
,,,84.2%,100%,Nc1ncnc2c1ncn2[C@@H]1O[C@H](CSCC[C@H](N)C(=O)O)[C@@H](O)[C@H]1O

# From ChEMBL document CHEMBL5120862, “Novel non-covalent LSD1 inhibitors endowed with anticancer effects in leukemia and solid tumor cellular models” (Eur J Med Chem, 2022)
